According to the NIST ThermoML archive (doi:10.1016/j.fluid.2014.06.021):
Numbers after ± are expanded uncertainties.

Test: activity coefficient (dimensionless); of the first substance listed, at infinite dilution; xn = mol fraction of the nth substance listed
Settings: 101.33 kPa, Liquid, Chromatography, x1 = 0

## Cc1ccccc1C [1,2-dimethylbenzene] + C[n+]1ccn(CCCCS(=O)(=O)O)c1.O=S(=O)([O-])O
323.15 K
  activity coefficient: 43.8 ± 3
333.15 K
  activity coefficient: 41.3 ± 2.8
343.15 K
  activity coefficient: 40.8 ± 2.8

## CCCCCCCCCCCCCC [tetradecane] + C[n+]1ccn(CCCCS(=O)(=O)O)c1.O=S(=O)([O-])O
323.15 K
  activity coefficient: 1910 ± 130
333.15 K
  activity coefficient: 1750 ± 120
343.15 K
  activity coefficient: 1680 ± 120

## C#CCCCC [1-hexyne] + C[n+]1ccn(CCCCS(=O)(=O)O)c1.O=S(=O)([O-])C(F)(F)F
323.15 K
  activity coefficient: 15.5 ± 1.1
333.15 K
  activity coefficient: 14.4 ± 0.99
343.15 K
  activity coefficient: 13.5 ± 0.92

## C#CCCCCC [1-heptyne] + C[n+]1ccn(CCCCS(=O)(=O)O)c1.O=S(=O)([O-])C(F)(F)F
323.15 K
  activity coefficient: 25.9 ± 1.8
333.15 K
  activity coefficient: 25.7 ± 1.8
343.15 K
  activity coefficient: 24.8 ± 1.7

## CCOCC [diethyl ether] + C[n+]1ccn(CCCCS(=O)(=O)O)c1.O=S(=O)([N-]S(=O)(=O)C(F)(F)F)C(F)(F)F
323.15 K
  activity coefficient: 0.4 ± 0.1
333.15 K
  activity coefficient: 0.53 ± 0.04
343.15 K
  activity coefficient: 0.65 ± 0.04

## C1CCCCCC1 [cycloheptane] + C[n+]1ccn(CCCCS(=O)(=O)O)c1.O=S(=O)([O-])C(F)(F)F
323.15 K
  activity coefficient: 225 ± 15
333.15 K
  activity coefficient: 270 ± 19
343.15 K
  activity coefficient: 287 ± 20

## CC#N [acetonitrile] + C[n+]1ccn(CCCCS(=O)(=O)O)c1.O=S(=O)([N-]S(=O)(=O)C(F)(F)F)C(F)(F)F
323.15 K
  activity coefficient: 0.4 ± 0.1
333.15 K
  activity coefficient: 0.42 ± 0.04
343.15 K
  activity coefficient: 0.45 ± 0.04

## c1ccccc1 [benzene] + C[n+]1ccn(CCCCS(=O)(=O)O)c1.O=S(=O)([N-]S(=O)(=O)C(F)(F)F)C(F)(F)F
323.15 K
  activity coefficient: 1.95 ± 0.13
333.15 K
  activity coefficient: 2.07 ± 0.14
343.15 K
  activity coefficient: 2.15 ± 0.15

## C1CCCCCC1 [cycloheptane] + C[n+]1ccn(CCCCS(=O)(=O)O)c1.O=S(=O)([N-]S(=O)(=O)C(F)(F)F)C(F)(F)F
323.15 K
  activity coefficient: 92.5 ± 6.4
333.15 K
  activity coefficient: 144 ± 9.9
343.15 K
  activity coefficient: 180 ± 12

## Cc1cccc(C)c1 [1,3-dimethylbenzene] + C[n+]1ccn(CCCCS(=O)(=O)O)c1.O=S(=O)([O-])C(F)(F)F
323.15 K
  activity coefficient: 10.4 ± 0.71
333.15 K
  activity coefficient: 10.1 ± 0.7
343.15 K
  activity coefficient: 9.84 ± 0.67

## c1ccccc1 [benzene] + C[n+]1ccn(CCCCS(=O)(=O)O)c1.O=S(=O)([O-])C(F)(F)F
323.15 K
  activity coefficient: 3.36 ± 0.23
333.15 K
  activity coefficient: 3.29 ± 0.22
343.15 K
  activity coefficient: 3.2 ± 0.2

## c1ccccc1 [benzene] + C[n+]1ccn(CCCCS(=O)(=O)O)c1.O=S(=O)([O-])O
323.15 K
  activity coefficient: 14.4 ± 0.98
333.15 K
  activity coefficient: 12.5 ± 0.85
343.15 K
  activity coefficient: 12.2 ± 0.83

## C[N+](=O)[O-] [nitromethane] + C[n+]1ccn(CCCCS(=O)(=O)O)c1.O=S(=O)([N-]S(=O)(=O)C(F)(F)F)C(F)(F)F
323.15 K
  activity coefficient: 0.6 ± 0.1
333.15 K
  activity coefficient: 0.6 ± 0.1
343.15 K
  activity coefficient: 0.6 ± 0.1

## CO [methanol] + C[n+]1ccn(CCCCS(=O)(=O)O)c1.O=S(=O)([N-]S(=O)(=O)C(F)(F)F)C(F)(F)F
323.15 K
  activity coefficient: 0.06
333.15 K
  activity coefficient: 0.08 ± 0.03
343.15 K
  activity coefficient: 0.09 ± 0.03

## CCC(=O)CC [pentan-3-one] + C[n+]1ccn(CCCCS(=O)(=O)O)c1.O=S(=O)([O-])C(F)(F)F
323.15 K
  activity coefficient: 2.31 ± 0.16
333.15 K
  activity coefficient: 2.33 ± 0.16
343.15 K
  activity coefficient: 2.44 ± 0.17

## CC#N [acetonitrile] + C[n+]1ccn(CCCCS(=O)(=O)O)c1.O=S(=O)([O-])C(F)(F)F
323.15 K
  activity coefficient: 0.68 ± 0.05
333.15 K
  activity coefficient: 0.67 ± 0.05
343.15 K
  activity coefficient: 0.68 ± 0.05

## CCCCCCCCCCC [undecane] + C[n+]1ccn(CCCCS(=O)(=O)O)c1.O=S(=O)([N-]S(=O)(=O)C(F)(F)F)C(F)(F)F
323.15 K
  activity coefficient: 515 ± 35
333.15 K
  activity coefficient: 448 ± 31
343.15 K
  activity coefficient: 425 ± 29

## c1ccsc1 [thiophene] + C[n+]1ccn(CCCCS(=O)(=O)O)c1.O=S(=O)([N-]S(=O)(=O)C(F)(F)F)C(F)(F)F
323.15 K
  activity coefficient: 0.83 ± 0.05
333.15 K
  activity coefficient: 0.83 ± 0.05
343.15 K
  activity coefficient: 0.82 ± 0.05

## ClC(Cl)(Cl)Cl [tetrachloromethane] + C[n+]1ccn(CCCCS(=O)(=O)O)c1.O=S(=O)([O-])C(F)(F)F
323.15 K
  activity coefficient: 12.4 ± 0.85
333.15 K
  activity coefficient: 12.1 ± 0.83
343.15 K
  activity coefficient: 11.4 ± 0.78

## CCCCCCCCCCCC [dodecane] + C[n+]1ccn(CCCCS(=O)(=O)O)c1.O=S(=O)([N-]S(=O)(=O)C(F)(F)F)C(F)(F)F
323.15 K
  activity coefficient: 684 ± 47
333.15 K
  activity coefficient: 588 ± 40
343.15 K
  activity coefficient: 557 ± 38

## ClC(Cl)Cl [trichloromethane] + C[n+]1ccn(CCCCS(=O)(=O)O)c1.O=S(=O)([O-])O
323.15 K
  activity coefficient: 6.65 ± 0.45
333.15 K
  activity coefficient: 6.73 ± 0.46
343.15 K
  activity coefficient: 6.84 ± 0.47

## CCc1ccccc1 [ethylbenzene] + C[n+]1ccn(CCCCS(=O)(=O)O)c1.O=S(=O)([O-])O
323.15 K
  activity coefficient: 62.7 ± 4.3
333.15 K
  activity coefficient: 57.6 ± 3.9
343.15 K
  activity coefficient: 54.5 ± 3.7

## CCCC(C)=O [pentan-2-one] + C[n+]1ccn(CCCCS(=O)(=O)O)c1.O=S(=O)([N-]S(=O)(=O)C(F)(F)F)C(F)(F)F
323.15 K
  activity coefficient: 0.42 ± 0.04
333.15 K
  activity coefficient: 0.52 ± 0.04
343.15 K
  activity coefficient: 0.64 ± 0.04
